Data published in US10538555B2, “Macrocyclic inhibitors of the PD-1/PD-L1 and CD80(B7-1)/PD-L1 protein/protein interactions” (BRISTOL-MYERS SQUIBB COMPANY, priority 2014, dated 2020).
Where a SMILES comes first, the peptide text is derived from it. Bridges are numbered along the chain shown (N, C = ends). [ ]: non-standard residue; d: D form. ξ: configuration not given here. Trp(1-CH2COOH) = N[C@@H](Cc1cn(CC(=O)O)c2ccccc12)C(=O)O; Phe(3,4,5-F3) = N[C@@H](Cc1cc(F)c(F)c(F)c1)C(=O)O; NMePhe(4-Me) = CN[C@@H](Cc1ccc(C)cc1)C(=O)O; NMePhe(4-F) = CN[C@@H](Cc1ccc(F)cc1)C(=O)O; NMeW = CN[C@@H](Cc1c[nH]c2ccccc12)C(=O)O; Phe(4-F) = N[C@@H](Cc1ccc(F)cc1)C(=O)O; d(cisHyp) = O=C(O)[C@H]1C[C@@H](O)CN1; Bta = N[C@@H](Cc1csc2ccccc12)C(=O)O; NMeIle(3ξ) = CCC(C)[C@H](NC)C(=O)O; Hyp = O=C(O)[C@@H]1C[C@@H](O)CN1; NMeF = CN[C@@H](Cc1ccccc1)C(=O)O; dHyp = O=C(O)[C@H]1C[C@H](O)CN1; NMeNle = CCCC[C@H](NC)C(=O)O; dNle = CCCC[C@@H](N)C(=O)O; Pip = O=C(O)[C@@H]1CCCCN1; dPip = O=C(O)[C@H]1CCCCN1; hSer = N[C@@H](CCO)C(=O)O; NMeA = CN[C@@H](C)C(=O)O; Orn = NCCC[C@H](N)C(=O)O; Dab = NCC[C@H](N)C(=O)O; Dap = NC[C@H](N)C(=O)O; ξC = NC(CS)C(=O)O

Biological target: T1, Human PD-L1/PD-1 (Homo sapiens, UniProt Q9NZQ7)
T1 construct: TVMV protease cleavage site (C); made in house; host or cells: HEK293T cells
T1 sequence (Q9NZQ7 with tags, fused parts or gaps): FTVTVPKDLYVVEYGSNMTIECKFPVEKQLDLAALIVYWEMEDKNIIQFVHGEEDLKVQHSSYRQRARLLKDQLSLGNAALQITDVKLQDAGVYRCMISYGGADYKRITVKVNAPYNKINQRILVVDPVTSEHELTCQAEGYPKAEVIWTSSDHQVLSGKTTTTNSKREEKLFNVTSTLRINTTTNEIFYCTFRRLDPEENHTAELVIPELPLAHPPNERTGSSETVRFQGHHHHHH
Assay: HTRF Human PD-L1/PD-1 binding assay (PD-1-Ig/PD-L1-His)
Conditions: PD-L1-His 10 nM, PD-1-Ig 20 nM; class symbol; read-out: HTRF Human PD-L1/PD-1 Binding Assay IC50 Range
Method in brief: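 Inhibitors were preincubated 15 min with human PD-L1(18-239)-His (10 nM final), then PD-1(25-167)-Ig (20 nM final) was added for 15 min in dPBS/0.1% BSA/0.05% Tween-20. Eu-cryptate anti-Ig (1 nM) and APC anti-His (20 nM) were added; 665/620 nm ratio read after 30 min.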

SMILES | IC50 [nM]
CCCC[C@H]1C(=O)N2CCC[C@@H]2C(=O)N[C@@H](CC(=O)O)C(=O)N[C@@H](C(C)C)C(=O)N(C)[C@@H](Cc2ccccc2)C(=O)N[C@@H](CCC(=O)O)C(=O)N2CCCC[C@@H]2C(=O)N[C@@H](Cc2c[nH]c3ccccc23)C(=O)N[C@@H](Cc2ccc(O)cc2)C(=O)N[C@@H](CC(N)=O)C(=O)N[C@H](C(=O)NCC(N)=O)CSCC(=O)N[C@@H](Cc2cc(F)c(F)c(F)c2)C(=O)N(C)[C@@H](Cc2ccc(F)cc2)C(=O)N1C [Example 10562] ({CH2CO}-[Phe(3,4,5-F3)][NMePhe(4-F)][NMeNle][dP]DV[NMeF]E[dPip]WYNCG-NH2; thioether N-13) | 1 to 9.9
CCCC[C@H]1C(=O)N(C)[C@@H](CCCC)C(=O)N[C@@H](CCCNC(=N)N)C(=O)NC(C(=O)NCC(N)=O)CSCC(=O)N[C@@H](Cc2ccc(O)cc2)C(=O)N(C)[C@@H](C)C(=O)N[C@@H](CC(N)=O)C(=O)N2CCC[C@H]2C(=O)N[C@@H](CC(N)=O)C(=O)N[C@@H](CC(C)C)C(=O)N2C[C@H](O)C[C@H]2C(=O)N[C@@H](Cc2c[nH]c3ccccc23)C(=O)N[C@@H](CCO)C(=O)N[C@@H](Cc2csc3ccccc23)C(=O)N1C (some centres unmarked) [Example 9131] ({CH2CO}-Y[NMeA]NPNL[Hyp]W[hSer][Bta][NMeNle][NMeNle]R[ξC]G-NH2; thioether N-14) | 1 to 9.9
CCCC[C@H]1C(=O)N(C)[C@@H](CCCC)C(=O)N[C@@H](CN)C(=O)N[C@H](C(=O)NCC(N)=O)CSCC(=O)N[C@@H](Cc2ccc(O)cc2)C(=O)N2CCCC[C@H]2C(=O)N[C@@H](CC(N)=O)C(=O)N2CCC[C@H]2C(=O)N[C@@H](Cc2cnc[nH]2)C(=O)N[C@@H](CCC(N)=O)C(=O)N2C[C@H](O)C[C@H]2C(=O)N[C@@H](Cc2c[nH]c3ccccc23)C(=O)N[C@@H](CCN)C(=O)N[C@@H](Cc2cn(CC(=O)O)c3ccccc23)C(=O)N1C [Example 1301] ({CH2CO}-Y[Pip]NPHQ[Hyp]W[Dab][Trp(1-CH2COOH)][NMeNle][NMeNle][Dap]CG-NH2; thioether N-14) | 10 to 99.9
CCCC[C@H]1C(=O)N2C[C@@H](O)C[C@@H]2C(=O)N[C@@H](CC(=O)O)C(=O)N[C@@H](C(C)C)C(=O)N(C)[C@@H](Cc2ccccc2)C(=O)N[C@@H](CCC(=O)O)C(=O)N2CCCC[C@@H]2C(=O)N[C@@H](Cc2c[nH]c3ccccc23)C(=O)N[C@@H](Cc2ccc(O)cc2)C(=O)N[C@@H](CO)C(=O)N[C@H](C(=O)NCC(N)=O)CSCC(=O)N[C@@H](Cc2cc(F)c(F)c(F)c2)C(=O)N(C)[C@@H](Cc2ccc(F)cc2)C(=O)N1C [Example 10557] ({CH2CO}-[Phe(3,4,5-F3)][NMePhe(4-F)][NMeNle][dHyp]DV[NMeF]E[dPip]WYSCG-NH2; thioether N-13) | 1 to 9.9
CCCC[C@H]1C(=O)N2C[C@@H](O)C[C@@H]2C(=O)N[C@@H](CC(=O)O)C(=O)N[C@@H](C(C)C)C(=O)N(C)[C@@H](Cc2ccc(C)cc2)C(=O)N[C@@H](CCCN)C(=O)N2CCC[C@@H]2C(=O)N[C@@H](Cc2c[nH]c3ccccc23)C(=O)N[C@@H](Cc2ccc(O)cc2)C(=O)N[C@@H](CCCN)C(=O)N[C@H](C(=O)NCC(N)=O)CSCC(=O)N[C@@H](Cc2cc(F)c(F)c(F)c2)C(=O)N(C)[C@@H](Cc2ccccc2)C(=O)N1C [Example 10121] ({CH2CO}-[Phe(3,4,5-F3)][NMeF][NMeNle][dHyp]DV[NMePhe(4-Me)][Orn][dP]WY[Orn]CG-NH2; thioether N-13) | 100 to 990
CCCC[C@H]1C(=O)N2C[C@H](O)C[C@@H]2C(=O)N[C@@H](CC(=O)O)C(=O)N[C@@H](C(C)C)C(=O)N(C)[C@@H](Cc2ccccc2)C(=O)N[C@@H](CC(N)=O)C(=O)N2C[C@H](O)C[C@@H]2C(=O)N[C@@H](Cc2c[nH]c3ccccc23)C(=O)N[C@@H](Cc2ccc(O)cc2)C(=O)N[C@@H](CCC(=O)O)C(=O)N[C@H](C(=O)NCC(N)=O)CSCC(=O)N[C@@H](Cc2cc(F)c(F)c(F)c2)C(=O)N(C)[C@@H](Cc2ccccc2)C(=O)N1C [Example 9366] ({CH2CO}-[Phe(3,4,5-F3)][NMeF][NMeNle][d(cisHyp)]DV[NMeF]N[d(cisHyp)]WYECG-NH2; thioether N-13) | 10 to 99.9
CCCC[C@H]1C(=O)N2CCC[C@@H]2C(=O)N[C@@H](CC(=O)O)C(=O)N[C@@H](C(C)C)C(=O)N(C)[C@@H](Cc2ccccc2)C(=O)N[C@@H](Cc2ccc(O)cc2)C(=O)N2CCC[C@@H]2C(=O)N[C@@H](Cc2c[nH]c3ccccc23)C(=O)N[C@@H](Cc2ccc(O)cc2)C(=O)N[C@@H](CO)C(=O)N[C@H](C(=O)NCC(N)=O)CSCC(=O)N[C@@H](Cc2cc(F)c(F)c(F)c2)C(=O)N(C)[C@@H](Cc2ccccc2)C(=O)N1C [Example 10094] ({CH2CO}-[Phe(3,4,5-F3)][NMeF][NMeNle][dP]DV[NMeF]Y[dP]WYSCG-NH2; thioether N-13) | 1 to 9.9
CCCC[C@H]1C(=O)N2CCC[C@@H]2C(=O)N[C@@H](CC(=O)O)C(=O)N[C@@H](C)C(=O)N(C)[C@@H](Cc2ccccc2)C(=O)N[C@@H](Cc2ccc(O)cc2)C(=O)N2CCCC[C@@H]2C(=O)N[C@@H](Cc2c[nH]c3ccccc23)C(=O)N[C@@H](Cc2ccc(O)cc2)C(=O)N[C@@H](CC(C)C)C(=O)N[C@H](C(=O)NCC(N)=O)CSCC(=O)N[C@@H](Cc2ccccc2)C(=O)N(C)[C@@H](Cc2ccccc2)C(=O)N1C [Example 10087] ({CH2CO}-F[NMeF][NMeNle][dP]DA[NMeF]Y[dPip]WYLCG-NH2; thioether N-13) | 10 to 99.9
CCCC[C@H]1NC(=O)[C@H](Cc2c[nH]c3ccccc23)NC(=O)[C@H](CO)NC(=O)[C@H](Cc2c[nH]c3ccccc23)NC(=O)[C@@H]2C[C@@H](O)CN2C(=O)[C@H](CC(C)C)NC(=O)[C@H](Cc2cnc[nH]2)NC(=O)[C@@H]2CCCN2C(=O)[C@H](CC(=O)O)NC(=O)[C@H](C)N(C)C(=O)[C@H](Cc2ccc(O)cc2)NC(=O)CSCC(C(=O)NCC(N)=O)NC(=O)[C@H](CCC(=O)O)NC(=O)[C@H](CCCC)N(C)C1=O (some centres unmarked) [Example 10132] ({CH2CO}-Y[NMeA]DPHL[Hyp]WSW[dNle][NMeNle]E[ξC]G-NH2; thioether N-14) | 100 to 990
CCCC[C@H]1C(=O)N2CCC[C@@H]2C(=O)N[C@@H](CC(=O)O)C(=O)N[C@@H](C(C)C)C(=O)N(C)[C@@H](C(C)CC)C(=O)N[C@@H](CCC(N)=O)C(=O)N2CCC[C@@H]2C(=O)N[C@@H](Cc2c[nH]c3ccccc23)C(=O)N[C@@H](Cc2ccc(O)cc2)C(=O)N[C@@H](CCCN)C(=O)N[C@H](C(=O)NCC(N)=O)CSCC(=O)N[C@@H](Cc2ccc(F)cc2)C(=O)N(C)[C@@H](Cc2ccccc2)C(=O)N1C (some centres unmarked) [Example 9262] ({CH2CO}-[Phe(4-F)][NMeF][NMeNle][dP]DV[NMeIle(3ξ)]Q[dP]WY[Orn]CG-NH2; thioether N-13) | 1000 to 10000
CCCC[C@H]1C(=O)N[C@@H](CN)C(=O)N[C@H](C(=O)NCC(N)=O)CSCC(=O)N[C@@H](Cc2ccc(O)cc2)C(=O)N(C)[C@@H](C)C(=O)N[C@@H](CC(N)=O)C(=O)N2CCC[C@H]2C(=O)N[C@@H](Cc2c[nH]cn2)C(=O)N[C@@H](CCC(=O)O)C(=O)N2C[C@H](O)C[C@H]2C(=O)N[C@@H](Cc2c[nH]c3ccccc23)C(=O)N[C@@H](CCN)C(=O)N[C@@H](Cc2c[nH]c3ccccc23)C(=O)N(C)[C@@H](Cc2c[nH]c3ccccc23)C(=O)N1C [Example 5160] ({CH2CO}-Y[NMeA]NPHE[Hyp]W[Dab]W[NMeW][NMeNle][Dap]CG-NH2; thioether N-14) | 10 to 99.9
